Test results: paper PMC6761529 (Antimicrobial Agents and Chemotherapy, 2019)
Values joined by “and” are separate entries in the source; they are usually repeats but may differ in a detail not shown here. Equal entries are not always repeated. Where two headings read alike, the source gives them in different places.

Tests used:
[1] = test system: O=C(Cc1cccs1)N[C@@H]1C(=O)N2C(C(=O)O)=C(/C=C/c3ccc([N+](=O)[O-])cc3[N+](=O)[O-])CS[C@H]12; assay: purified protein, by the assay type; details: other: nitrocefin as substrate; standard error in parentheses, n = 3; pH 7.5; 25.0 °C
S. maltophilia K279a [2] = assay: MIC broth microdilution, S. maltophilia K279a; assay type: cell-based; details: for MIC: Stenotrophomonas maltophilia, K279A, read-out: MIC of β-lactam
Procedure: S. maltophilia K279a is a well-characterized isolate from Bristol, United Kingdom, and was obtained as previously reported ([46]).
(§1) MIC values were determined using broth microdilution, in triplicate, in cation-adjusted Mueller-Hinton broth (Sigma) according to the Clinical and Laboratory Standards Institute (CLSI) guidelines ([47]). […] Plates were incubated overnight at 37°C for 18 to 24 h, and the absorbance at 600 nm was read using a POLARstar Omega (BMG LabTech) plate reader.

S. maltophilia K279a [3] = details: with avibactam; cited from earlier work
KPC-2 [4] = molecular target: T1, KPC-2 (Klebsiella pneumoniae, UniProt Q9F663); details: cited from earlier work
OXA-48 = molecular target: OXA-48; set-up: method as in PMID 29627985; details: cited from earlier work
KPC-2 [5] = molecular target: T1, KPC-2; set-up: method as in PMID 29627985; details: cited from earlier work
K. pneumoniae Ecl8 pUBYT = assay: MIC broth microdilution, K. pneumoniae Ecl8 pUBYT (empty vector); assay type: cell-based; details: Klebsiella pneumoniae, ECL8PUBYT, read-out: MIC of β-lactam
From the text: (§2) The pUBYT vector containing blaKPC-3 under the ISKpn7 promoter was used as a template for site-directed mutagenesis to create pUBYT containing blaKPC-2 and blaKPC-4 with the same promoter ([45]). The single point mutation in KPC-2 (Y274H) and double point mutations in KPC-4 (P104R, V240G) were introduced using a QuikChange Lightning site-directed mutagenesis kit (Agilent Genomics) with the primers specified in Table S1 in the supplemental material. Klebsiella pneumoniae Ecl8 was transformed with the resulting pUBYT constructs via electroporation.
as §1

[6] = test system: K. pneumoniae Ecl8 pUBYT KPC-2; assay: microbe, parasite or virus in culture; assay type: cell-based; details: Klebsiella pneumoniae
From the text: as §2, §1

[7] = test system: K. pneumoniae Ecl8 pUBYT KPC-4; assay: microbe, parasite or virus in culture; assay type: cell-based; details: Klebsiella pneumoniae
From the text: as §2, §1

[8] = test system: K. pneumoniae Ecl8 pUBYT KPC-3; assay: microbe, parasite or virus in culture; assay type: cell-based; details: Klebsiella pneumoniae
From the text: as §2, §1

KPC-4 [9] = molecular target: T2, KPC-4 (Klebsiella pneumoniae, UniProt Q9F663, P103R/V239G); assay: Steady-state nitrocefin hydrolysis, KPC-4; assay type: biochemical; details: nitrocefin as substrate; standard error in parentheses, n = 3
Procedure: (§4) Kinetic parameters were calculated and analyzed using GraphPad Prism 6.

KPC-2 [10] = molecular target: T1, KPC-2; assay type: biochemical; details: nitrocefin as substrate; standard error in parentheses, n = 3
Procedure: as §4

KPC-3 [11] = molecular target: T3, KPC-3 (Klebsiella pneumoniae, UniProt Q9F663, H272Y); assay type: biochemical; details: nitrocefin as substrate; standard error in parentheses, n = 3
Procedure: as §4

KPC-2 [12] = molecular target: T1, KPC-2; details: after 24 hours of incubation; cited from earlier work
CTX-M-15 [13] = molecular target: T4, CTX-M-15 (Escherichia coli, UniProt Q9EXV5); assay: biochemical
Procedure: as §4
(§5) Diazabicyclooctanes were dissolved in DMSO (100 mM) and diluted to the desired concentration in 10 mM HEPES (pH 7.5) and 150 mM NaCl.

L2 [14] = molecular target: T5, L2 (Stenotrophomonas maltophilia, UniProt Q9RBQ1); assay: IC50, nitrocefin hydrolysis after 10-minute preincubation, L2; assay type: biochemical
Procedure: as §4, §5

[15] = test system: KPC variants expressed in K. pneumoniae Ecl8; assay type: cell-based, Klebsiella pneumoniae; details: in the presence of 4 mg liter^−1 relebactam
From the text: as §2, §1

CTX-M-15 [16] = molecular target: T4, CTX-M-15; assay: Direct competition of relebactam and nitrocefin (Kiapp, k2/K), CTX-M-15; assay type: biochemical
Procedure: as §4
(2) E+I⇌k−1k1E:I⇌k−2k2E-I→k3E-I′→k4E+P
(§6) Complete progress curves were fitted to equation 5 in order to obtain values for kobs (pseudo-first-order rate constant for inactivation).(5) A=vf*t+(v0−vf)*((1−e^−kobs*t)/kobs)+A0
(§7) ([I]) according to equation 6, with the uncorrected value for k2/K (k2/K′) then equal to the slope of the line.(6) kobs=k−2+k2/K^′*[I]

L2 [17] = molecular target: T5, L2; assay: Direct competition of relebactam and nitrocefin (Kiapp, k2/K), L2; assay type: biochemical; details: Dixon plot, no preincubation; standard deviation in parentheses
Procedure: as §4
(2) E+I⇌k−1k1E:I⇌k−2k2E-I→k3E-I′→k4E+P
as §6, §7

[18] = molecular target: Pseudomonas-derived cephalosporinase-3 (PDC-3); details: read-out: Kiapp; cited from earlier work
KPC-3 [19] = molecular target: T3, KPC-3
Procedure: (§3) Final enzyme concentrations were as follows: 50 nM KPC-2, 5 nM KPC-3, 50 nM KPC-4, 50 pM CTX-M-15, and 50 pM L2. Complete progress curves were collected, and the results fitted to equation 8 to obtain koff.(8) A=vf*t+(v0−vf)*(1−e^−kofft)/koff+A0

KPC-2 [20] = molecular target: T1, KPC-2; details: recombinant enzyme
Procedure: as §3

CTX-M-15 [21] = molecular target: T4, CTX-M-15; details: recombinant enzyme
Procedure: as §3

KPC-4 [22] = molecular target: T2, KPC-4
Procedure: as §3

L2 [23] = molecular target: T5, L2; details: recombinant enzyme
Procedure: as §3

[24] = ECL8PUBYTKPC2, read-out: MIC of β-lactam, no inhibitor present
[25] = ECL8PUBYTKPC4, read-out: MIC of β-lactam, no inhibitor present
[26] = ECL8PUBYTKPC3, read-out: MIC of β-lactam, no inhibitor present

In the case of CTX-M-15 (Escherichia coli), the Km [1] is reported as 63 (11) µM, the kcat [1] is reported as 312 (8) s-1 and the kcat/Km [1] is reported as 5e+06 M⁻¹ s⁻¹.

In the case of C[C@H]1[C@H](NC(=O)/C(=N\OC(C)(C)C(=O)O)c2csc(N)n2)C(=O)N1S(=O)(=O)O [Aztreonam, aztreonam], the MIC (S. maltophilia K279a [2]; +REL (relebactam, 4 mg/liter)) is reported as 8 µg/mL, the MIC (S. maltophilia K279a [2]; no inhibitor present) is reported as over 256 µg/mL and the “aztreonam MIC” value (S. maltophilia K279a [2]; addition of relebactam) is reported as 8 µg/mL. For the same compound, the “aztreonam MIC” value (S. maltophilia K279a [2]; without inhibitor) was 256 µg/mL and the “aztreonam MIC” value (S. maltophilia K279a [3]) was 2 µg/mL.

In the case of O=C(NNC(=O)[C@@H]1CC[C@@H]2CN1C(=O)N2OS(=O)(=O)O)[C@@H]1CCCNC1 [WCK-5107, zidebactam], the “Ki value, fold higher than avibactam” value (KPC-2 [4]) is given as 5 fold and the “Ki value, fold higher than relebactam” value (KPC-2 [4]) is given as 2 fold.

For N#C[C@@H]1CC[C@@H]2CN1C(=O)N2OS(=O)(=O)O [WCK-4234], the Ki (OXA-48) is given as 290 nM and the off rate (KPC-2 [5]) is given as 0.00045 s⁻¹.

Work on CC(C)(O/N=C(\C(=O)N[C@@H]1C(=O)N2C(C(=O)[O-])=C(C[n+]3ccccc3)CS[C@H]12)c1csc(N)n1)C(=O)O [Ceftazidime, ceftazidime] yielded an MIC (S. maltophilia K279a [2]; +AVI (avibactam, 4 mg/liter)) of 8 µg/mL, an MIC (S. maltophilia K279a [2]; no inhibitor present) of 16 µg/mL and an MIC (K. pneumoniae Ecl8 pUBYT) of under 0.125 µg/mL. The MIC ([6]; ECL8PUBYTKPC2, read-out: MIC of β-lactam, +AVI (avibactam, 4 mg/liter)) was 0.125 µg/mL, the MIC [6, 24] was 16 µg/mL and the MIC ([7]; ECL8PUBYTKPC4, read-out: MIC of β-lactam, +AVI (avibactam, 4 mg/liter)) was 1 µg/mL. It also gave an MIC [7, 25] of 128 µg/mL, an MIC ([8]; ECL8PUBYTKPC3, read-out: MIC of β-lactam, +AVI (avibactam, 4 mg/liter)) of under 0.125 µg/mL and an MIC [8, 26] of 128 µg/mL.

With O=C(Cc1cccs1)N[C@@H]1C(=O)N2C(C(=O)O)=C(/C=C/c3ccc([N+](=O)[O-])cc3[N+](=O)[O-])CS[C@H]12 [Nitrocefin, nitrocefin] the Km (KPC-4 [9]) was 59 µM, the kcat (KPC-4 [9]) was 166 (44) s-1 and the Km (KPC-2 [10]) was 18.3 µM. For the same compound, the kcat (KPC-2 [10]) was 613 (9) s-1, the Km (KPC-3 [11]) was 36 µM and the kcat (KPC-3 [11]) was 88 (8) s-1.

For L2 (Stenotrophomonas maltophilia), the Km [1] was 206 (27) µM, the kcat [1] was 813 (41) s-1 and the kcat/Km [1] was 4e+06 M⁻¹ s⁻¹.

In the case of NC(=O)[C@@H]1CC[C@@H]2CN1C(=O)N2OS(=O)(=O)O [Avibactam, avibactam], the KPC-2 remaining acylated (KPC-2 [12]) is given as 10%, the IC50 (CTX-M-15 [13]) is given as 3.4 nM and the IC50 (L2 [14]) is given as 15 nM.

Compound C[C@@H](O)[C@H]1C(=O)N2C(C(=O)O)=C(SCCN=CN)C[C@H]12 [Imipenem, imipenem] has an MIC (S. maltophilia K279a [2]; +REL (relebactam, 4 mg/liter)) of 64 µg/mL, an MIC (S. maltophilia K279a [2]; no inhibitor present) of 128 µg/mL and an MIC (K. pneumoniae Ecl8 pUBYT) of under 0.0625 µg/mL. For the same compound, the “imipenem MICs in all KPC producers” value [15] was at most 0.5 mg/L, the MIC ([6]; ECL8PUBYTKPC2, read-out: MIC of β-lactam, +REL (relebactam, 4 mg/liter)) was 0.5 µg/mL and the MIC [6, 24] was 64 µg/mL. The MIC ([7]; ECL8PUBYTKPC4, read-out: MIC of β-lactam, +REL (relebactam, 4 mg/liter)) was 0.125 µg/mL, the MIC [7, 25] was 0.5 µg/mL and the MIC ([8]; ECL8PUBYTKPC3, read-out: MIC of β-lactam, +REL (relebactam, 4 mg/liter)) was under 0.125 µg/mL. It also gave an MIC [8, 26] of 16 µg/mL.

For O=C(NC1CCNCC1)[C@@H]1CC[C@@H]2CN1C(=O)N2OS(=O)(=O)O [Relebactam, relebactam], the Ki (CTX-M-15 [16]) is listed as 21000 nM, the Ki (L2 [17]) is listed as 3000 nM and 2700 nM and the Ki [18] is listed as 3400 nM. For the same compound, the “reduction in off-rate compared with KPC-2” value (KPC-3 [19]; KPC-3 vs KPC-2) was about 4.5 fold, the t1/2 (KPC-3 [19]; recombinant enzyme) was 58 min and the t1/2 (KPC-2 [20]) was 13 min. The t1/2 (CTX-M-15 [21]) was 30 min, the “reduction in off-rate compared with KPC-2” value (KPC-4 [22]; KPC-4 vs KPC-2) was about 4.5 fold and the t1/2 (KPC-4 [22]; recombinant enzyme) was 61 min. For the same compound, the t1/2 (L2 [23]) was 21 min, the IC50 (CTX-M-15 [13]) was 400 nM and the IC50 (L2 [14]) was 470 nM.
